The record followed here is US20180110777A1, “METHOD FOR REGULATION OF TELOMERE LENGTH” (The Johns Hopkins University, priority 2015, published 2018).

The subject of assay [1] is SL13 cells. The assay can be described thus: Telomere Southern blot after lentiviral overexpression of mTR and mTERT. The settings on record: SL13 cells transduced with lentivirus expressing mTR and mTERT; day 6. In kind it is cell-based, mouse.
In assay [2] the test system is SL13 cells. The assay can be described thus: ADDIT assay (addition of de novo initiated telomeres; modified STELA with PacBio sequencing or Southern blot). The class given is cell-based, mouse. The text has this:
To critically access the role of ATM, as well as other potential telomere length regulators, an assay was developed that measures telomere repeat addition in cells over 48 hr. CAST/EiJ mouse fibroblast cell line was engineered to (SL13) contain a conditional mTR allele and a modified chromosome 4 (chr4) with an internal 480 bp telomere ‘seed’ sequence followed by a unique I-Sce1 endonuclease cut site (FIG. 5 and see Experimental Procedures). The internal telomere ‘seed’ sequence can be conditionally exposed by I-Sce1 endonuclease cleavage (FIG. 1A) and then be elongated by telomerase in a manner similar to de novo telomere addition shown to occur in yeast (Diede and Gottschling, 1999, Cell 99, 723-733).
To better detect the telomere elongation, the single telomere length analysis (STELA) assay was modified (Baird et al., 2004, Hum Mol Genet 13, 1515-1524), to measure telomere length at the in vivo cut chr4. The linker, ‘telorette’, was ligated to the telomere and PCR amplified the telomere using the ‘teltail’ primer and an internal primer in the hygromycin resistance (HYG) sequence on the engineered chromosome (FIG. 1B). To determine the un-extended cut chromosome length in vitro, a different linker was designed, ‘IScerette’, which anneals to the 4-nt 3′ overhang created by the I-Sce1 endonuclease (FIG. 1B). PCR using the forward primers, F1 or F2, and the teltail generated products of predicted size on a Southern blot (data not shown).
To further verify telomere addition had occurred, the PCR products were sequenced with Pacific Biosciences (PacBio®) sequencing. PacBio® produces long sequence reads that allowed us to determine telomere length. While sequencing errors, predominantly point insertions and deletions, occurred as expected, the telomere repeats were easily recognizable. To assure products were full length, the PacBio® reads were filtered to examine only those that had the unique HYG sequence followed by the seed telomere repeat sequence and also had the ‘teltail’ primer sequence (FIG. 6). […] The I-Sce1 site is shown boxed (FIG. 1C). Three regions of variant telomere repeats were noted, evident as darker stripes in the aligned reads, that were present in the original SL13 clone, and served as useful sequence reference points (FIG. 1C). If there were degradation past these variants and then new TTAGGG (SEQ ID NO: 100) repeat synthesis in vivo, these landmarks would be removed.
The sequence length distribution in the ADDIT assay represents telomere elongation, incomplete telomere replication and in vivo end resection (as well as PacBio® sequencing errors).
Cell lines were grown in DMEM (Gibco) supplemented with 1% Penicillin/Streptomycin/Glutamine (PSG) and 10% heat inactivated FBS (Invitrogen). SL13 cells were grown in DMEM (Gibco) supplemented with 1% PSG and 10% Tet system approved FBS (Clontech, #631107). Cells were treated with ATM inhibitor KU55933 (R&D Systems, #3544), ATR inhibitor VE821 (Selleckchem, #S8007) or PARP1 inhibitor Olaparib (Selleckchem, #1060) at indicated concentrations or DMSO as a control. For the ADDIT assay, SL13 cells were treated with final concentration 2 μg/ml of doxycycline for typically 48 hr or as indicated.
The original STELA protocol used for human cells (Baird et al., 2004, Hum Mol Genet 13, 1515-1524) was modified to measure telomere lengths on the cut end of chr4 in SL13 cells. Briefly, genomic DNA was extracted using Puregene Core Kit A™ (Qiagen). 4 μg of genomic DNA was digested with Sph1 (NEB) and later diluted to 10 ng/μl in water. For the in vitro IScerette sample, genomic DNA was digested with SphI and I-SceI (NEB) prior to ligation. The ligation was carried out at 35° C. for at least 12 hr in a volume of 10 μl containing 10 ng of digested genomic DNA, 0.9 μM of telorette linkers or IScerette linker and 0.5 U of T4 DNA ligase (NEB) in 1×T4 ligation buffer. […]

On to `CS(=O)(=O)c1ccc(-c2cnc(N)c(C(=O)Nc3ccccc3)n2)cc1` [VE821], for which the “telomere elongation on overexpression of telomerase (Southern blot)” value in assay [1] was “subtle but reproducible decreased elongation at day 6”.
For `CN[C@H]1CCc2cc(OC)c(OC)c(OC)c2-c2ccc(OC)c(=O)cc21` [colcemid], the “de novo telomere addition / telomere elongation in ADDIT assay (in words)” value in assay [2] (PacBio sequencing of STELA products, compared to controls) is “No significant difference of de novo elongation”.
As to `CN1CC[C@H](c2c(O)cc(O)c3c(=O)cc(-c4ccccc4Cl)oc23)[C@H](O)C1` [flavopiridol], in assay [2] (400 nM flavopiridol, 48 hrs, DMSO control 24%), the “percentage of reads with de novo telomere addition” value is on record as “less than 2%”. Also, in assay [2] (flavopiridol-treated sample), the “elongation in Southern blot analysis of STELA PCR products” value is given as “minimal elongation beyond the chr4 I-Sce1-induced cut base line”.
